The results in this text go back to ChEMBL document CHEMBL1132272, “Prediction of ligand-receptor binding thermodynamics by free energy force field three-dimensional quantitative structure-activity relationship analysis: applications to a set of glucose analogue inhibitors of glycogen phosphorylase” (J Med Chem, 1999).

In general, Ki refers to the equilibrium dissociation constant of an inhibitor or competing ligand from its target.

The experiment can be described thus: The compound was evaluated for the inhibition of glycogen phosphorylase.
Consider `N#CC[C@@H]1O[C@H](CO)[C@@H](O)[C@H](O)[C@H]1O`, for which the affinity, expressed as Ki, was 9000 µM. With `NC(=O)C1OC(CO)C(O)C(O)C1O` (stereo in doubt; 10), the Ki was 370 µM. Then `OCC1OC(CO)C(O)C(O)C1O` (stereo unspecified), with 1500 µM; and `CC1OC(CO)C(O)C(O)C1O` (stereo unspecified), with 53100 µM.

For `O=C(N[C@H]1O[C@H](CO)[C@@H](O)[C@H](O)[C@H]1O)c1ccccc1`, the inhibitory constant (Ki) amounted to 81 µM.

`OCC1OC(S)C(O)C(O)C1O` (stereo unspecified) showed a Ki of 1000 µM.

`O=C(Nc1ccccc1)C1OC(CO)C(O)C(O)C1O` (stereo unspecified) came in with a Ki of 5400 µM. Then `O=C(CBr)N[C@H]1O[C@@H](CO)[C@@H](O)[C@H](O)[C@@H]1O`, with 44 µM.

`NCC(=O)N[C@H]1O[C@@H](CO)[C@@H](O)[C@H](O)[C@@H]1O` displayed a Ki of 370 µM. As for `CNC(=O)C1OC(CO)C(O)C(O)C1O` (stereo in doubt; 8), the Ki came to 160 µM. Under `CCCC(=O)N[C@H]1O[C@H](CO)[C@@H](O)[C@H](O)[C@H]1O` stands 94 µM; under `O=C(CCl)N[C@H]1O[C@H](CO)[C@@H](O)[C@H](O)[C@H]1O`, 45 µM. Under `OC[C@H]1O[C@](O)(CO)[C@@H](O)[C@H](O)[C@H]1O` stands 15800 µM; under `CCC(=O)N[C@H]1O[C@H](CO)[C@@H](O)[C@H](O)[C@H]1O`, 39 µM; under `CO[C@@H]1O[C@H](CO)[C@H](O)[C@H](O)[C@H]1O`, 24700 µM.

`CNC(=O)C1OC(CO)C(O)C(O)C1O` (stereo in doubt; 22) yielded a Ki of 36700 µM. Then `CC(=O)N[C@H]1O[C@H](CO)[C@@H](O)[C@H](O)[C@H]1O`, with 32 µM; and `NC(=O)C1OC(CO)C(O)C(O)C1O` (stereo in doubt; 11), with 440 µM; and `NNC(=O)[C@@H]1O[C@H](CO)[C@@H](O)[C@H](O)[C@H]1O`, with 980 µM. Under `NCC1OC(CO)C(O)C(O)C1O` (stereo unspecified) stands 34500 µM; under `NC(=O)N[C@H]1O[C@H](CO)[C@@H](O)[C@H](O)[C@H]1O`, 140 µM.
